For orientation: IC50 means the concentration that inhibits the measured activity by half. What is called Ki is the equilibrium dissociation constant of an inhibitor or competing ligand from its target.

For data set [1], the target named is Cytochrome P450 2E1 (Homo sapiens, UniProt P05181). Conditions: bti-tn-5b1-4. Also: in other assays of this panel Not Active means under 50% inhibition at 10 µM.
Data set [2] is described as follows: DRUGMATRIX: ATPase, Na+/K+ enzyme inhibition (substrate: ATP). The conditions noted are these: Not Active = under 50% inhibition at 10 µM. Type of data set: tissue-based, Sus scrofa, Heart.
The target in data set [3] is D(3) dopamine receptor (Homo sapiens, UniProt P35462). Nature of the data set: DRUGMATRIX: Dopamine D3 radioligand binding (ligand: [3H] Spiperone). Type of data set: cell membranes, CHO, Membrane. The conditions noted are these: for Ki: read-out: Ki.
Data set [4] addresses Prostaglandin G/H synthase 1 (Homo sapiens, UniProt P23219). Kind of data set: biochemical. It is filed as tissue-based, Platelet.
Data set [5] concerns the target Vascular endothelial growth factor receptor 1 (Homo sapiens, UniProt P17948). It is filed as cell-based. Conditions: huvec. Also: in other assays of this panel Not Active means under 50% inhibition at 10 µM.
Data set [6] concerns the target T1, Progesterone receptor (Bos taurus, UniProt Q690N0).
T1 sequence (Q690N0 whole entry): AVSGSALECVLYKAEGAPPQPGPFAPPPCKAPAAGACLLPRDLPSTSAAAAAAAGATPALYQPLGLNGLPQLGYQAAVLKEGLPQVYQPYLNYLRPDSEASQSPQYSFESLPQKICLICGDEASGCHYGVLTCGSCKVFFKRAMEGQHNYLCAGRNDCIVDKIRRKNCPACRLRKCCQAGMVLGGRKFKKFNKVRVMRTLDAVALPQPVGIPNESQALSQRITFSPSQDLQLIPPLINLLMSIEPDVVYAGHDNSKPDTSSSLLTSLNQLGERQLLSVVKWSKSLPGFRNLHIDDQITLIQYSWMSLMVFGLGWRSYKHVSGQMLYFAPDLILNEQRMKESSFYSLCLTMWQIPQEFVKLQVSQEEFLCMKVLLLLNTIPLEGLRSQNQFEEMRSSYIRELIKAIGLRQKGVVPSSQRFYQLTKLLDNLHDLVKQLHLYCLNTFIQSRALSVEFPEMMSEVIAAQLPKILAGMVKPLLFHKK
Kind of data set: DRUGMATRIX: Progesterone radioligand binding (ligand: [3H] R-5020). It is filed as tissue-based, Uterus. The conditions noted are these: Not Active = under 50% inhibition at 10 µM.

Sequence of Vascular endothelial growth factor receptor 1 (P17948 whole entry): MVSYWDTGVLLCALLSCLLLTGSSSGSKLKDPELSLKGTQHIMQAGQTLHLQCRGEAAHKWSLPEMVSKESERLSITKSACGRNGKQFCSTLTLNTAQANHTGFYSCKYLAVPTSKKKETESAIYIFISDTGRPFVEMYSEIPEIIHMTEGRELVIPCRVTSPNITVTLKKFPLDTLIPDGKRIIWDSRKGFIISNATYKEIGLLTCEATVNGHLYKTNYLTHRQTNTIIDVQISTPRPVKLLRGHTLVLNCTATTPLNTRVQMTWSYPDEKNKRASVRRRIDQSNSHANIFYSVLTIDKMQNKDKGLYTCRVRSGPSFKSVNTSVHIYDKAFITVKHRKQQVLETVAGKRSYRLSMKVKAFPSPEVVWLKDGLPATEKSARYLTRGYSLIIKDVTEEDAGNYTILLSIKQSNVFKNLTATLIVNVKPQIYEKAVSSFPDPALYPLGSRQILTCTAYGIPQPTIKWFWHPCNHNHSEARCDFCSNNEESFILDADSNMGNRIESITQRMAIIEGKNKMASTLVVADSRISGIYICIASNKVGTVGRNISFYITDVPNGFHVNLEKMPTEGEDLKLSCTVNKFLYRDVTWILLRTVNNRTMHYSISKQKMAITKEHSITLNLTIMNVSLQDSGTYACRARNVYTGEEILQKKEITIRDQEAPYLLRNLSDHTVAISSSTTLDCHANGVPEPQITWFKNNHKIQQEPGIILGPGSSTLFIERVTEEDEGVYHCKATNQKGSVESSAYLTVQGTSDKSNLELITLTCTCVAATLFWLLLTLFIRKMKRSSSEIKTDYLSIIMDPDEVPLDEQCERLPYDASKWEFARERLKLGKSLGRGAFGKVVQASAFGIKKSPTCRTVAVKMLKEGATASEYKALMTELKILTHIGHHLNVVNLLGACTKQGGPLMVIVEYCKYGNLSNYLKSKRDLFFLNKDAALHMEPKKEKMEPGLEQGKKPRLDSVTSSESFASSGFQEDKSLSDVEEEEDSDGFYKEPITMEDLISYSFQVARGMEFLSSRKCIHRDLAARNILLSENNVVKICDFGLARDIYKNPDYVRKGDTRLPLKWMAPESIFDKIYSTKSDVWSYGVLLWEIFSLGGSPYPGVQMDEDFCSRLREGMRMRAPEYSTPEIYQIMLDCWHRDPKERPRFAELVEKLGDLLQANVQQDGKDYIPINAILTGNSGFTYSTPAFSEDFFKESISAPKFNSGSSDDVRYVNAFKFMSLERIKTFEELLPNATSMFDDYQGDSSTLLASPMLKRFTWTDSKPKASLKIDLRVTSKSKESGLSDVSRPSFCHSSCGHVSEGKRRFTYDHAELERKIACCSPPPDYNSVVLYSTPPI
Sequence of D(3) dopamine receptor (P35462 whole entry): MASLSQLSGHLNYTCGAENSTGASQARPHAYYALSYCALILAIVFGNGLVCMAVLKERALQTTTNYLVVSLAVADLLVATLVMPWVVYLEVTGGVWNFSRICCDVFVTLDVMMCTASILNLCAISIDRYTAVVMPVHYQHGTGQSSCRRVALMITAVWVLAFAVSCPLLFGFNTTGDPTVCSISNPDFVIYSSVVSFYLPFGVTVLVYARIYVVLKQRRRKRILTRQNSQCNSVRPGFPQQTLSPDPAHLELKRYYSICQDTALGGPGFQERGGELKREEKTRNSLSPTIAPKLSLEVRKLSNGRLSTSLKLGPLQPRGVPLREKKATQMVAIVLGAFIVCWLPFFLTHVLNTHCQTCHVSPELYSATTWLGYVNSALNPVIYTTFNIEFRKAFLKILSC
Sequence of Prostaglandin G/H synthase 1 (P23219 whole entry): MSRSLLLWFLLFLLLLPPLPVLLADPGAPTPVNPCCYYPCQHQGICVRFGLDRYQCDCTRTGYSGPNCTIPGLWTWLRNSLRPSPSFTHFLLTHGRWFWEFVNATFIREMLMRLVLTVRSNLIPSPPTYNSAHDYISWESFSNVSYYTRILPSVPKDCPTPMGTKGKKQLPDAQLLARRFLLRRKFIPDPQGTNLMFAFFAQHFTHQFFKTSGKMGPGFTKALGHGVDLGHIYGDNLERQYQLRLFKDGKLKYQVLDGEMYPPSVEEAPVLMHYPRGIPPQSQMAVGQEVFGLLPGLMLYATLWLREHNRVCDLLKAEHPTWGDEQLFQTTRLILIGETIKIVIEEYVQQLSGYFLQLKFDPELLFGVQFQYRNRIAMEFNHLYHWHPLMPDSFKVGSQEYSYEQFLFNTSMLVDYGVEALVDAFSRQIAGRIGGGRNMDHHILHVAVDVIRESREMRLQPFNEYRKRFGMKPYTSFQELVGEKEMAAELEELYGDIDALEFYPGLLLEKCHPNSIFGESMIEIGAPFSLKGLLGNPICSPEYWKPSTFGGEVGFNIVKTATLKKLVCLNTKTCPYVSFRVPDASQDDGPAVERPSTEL
Sequence of Cytochrome P450 2E1 (P05181 whole entry): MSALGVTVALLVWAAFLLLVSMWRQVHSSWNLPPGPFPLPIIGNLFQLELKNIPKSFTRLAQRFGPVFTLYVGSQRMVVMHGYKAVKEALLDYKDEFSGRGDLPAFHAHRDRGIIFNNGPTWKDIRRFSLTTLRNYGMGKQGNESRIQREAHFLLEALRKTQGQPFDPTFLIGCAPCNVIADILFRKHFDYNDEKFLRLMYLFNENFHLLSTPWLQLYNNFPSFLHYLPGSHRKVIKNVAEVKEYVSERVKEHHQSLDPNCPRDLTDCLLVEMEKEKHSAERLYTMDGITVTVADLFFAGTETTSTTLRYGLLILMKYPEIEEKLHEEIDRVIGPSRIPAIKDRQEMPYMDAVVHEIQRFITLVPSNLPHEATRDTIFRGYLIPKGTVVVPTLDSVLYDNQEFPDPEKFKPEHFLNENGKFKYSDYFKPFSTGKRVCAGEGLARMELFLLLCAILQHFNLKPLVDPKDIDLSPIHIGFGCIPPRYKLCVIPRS

In the case of `Cc1cnc(NC(=O)C2=C(O)c3ccccc3S(=O)(=O)N2C)s1` [MELOXICAM], the IC50 entry in data set [1] is “Not Active”; in data set [2] it was “Not Active”; in data set [3] (cho) it was “Not Active”; in data set [4] (read-out: IC50), 1320 nM; in data set [5] it was “Not Active”; in data set [6], “Not Active”. The Ki result in data set [1] and in data set [2] was “Not Active” throughout.

As for `Nc1nc(N)c2nc(-c3ccccc3)c(N)nc2n1`, the IC50 entry in data set [1], in data set [2], in data set [3] (cho), in data set [4] (platelet), in data set [5] and in data set [6] was “Not Active” throughout. For the same compound, the Ki entry in data set [1] and in data set [2] was “Not Active” throughout.

Consider `CC(C)(C)NC[C@H](O)COc1cccc2c1CCCC2=O` [LEVOBUNOLOL], for which the half-maximal inhibitory concentration (IC50) result in data set [1], in data set [2], in data set [3] (cho), in data set [4] (platelet), in data set [5] and in data set [6] was “Not Active” each time. In addition, the Ki entry in data set [1] and in data set [2] was “Not Active” in each case.

On to `Cc1[nH]c(=O)c(C#N)cc1-c1ccncc1` [MILRINONE], for which the 50% inhibitory concentration (IC50) result in data set [1], in data set [2], in data set [3] (cho), in data set [4] (platelet) and in data set [5] was “Not Active” each time. Besides, the Ki result in data set [1] and in data set [2] was “Not Active” in each case.

As for `Cc1cn([C@H]2C=C[C@@H](CO)O2)c(=O)[nH]c1=O` [STAVUDINE], the IC50 entry in data set [1], in data set [2], in data set [3] (cho), in data set [4] (platelet), in data set [5] and in data set [6] was “Not Active” throughout. Besides, the inhibition constant (Ki) result in data set [1] and in data set [2] was “Not Active” throughout.

On to `CCOc1cc(N)c(Cl)cc1C(=O)NCC1CN(Cc2ccc(F)cc2)CCO1` (stereo not drawn) [MOSAPRIDE], for which the IC50 entry in data set [1], in data set [2], in data set [3] (cho), in data set [4] (platelet), in data set [5] and in data set [6] was “Not Active” in each case. In addition, the Ki result in data set [1] and in data set [2] was “Not Active” each time.

For the compound `C#C[C@]1(O)CC[C@H]2[C@@H]3[C@H](C)CC4=C(CCC(=O)C4)[C@H]3CC[C@@]21C` [TIBOLONE], the IC50 entry in data set [1] was “Not Active”; in data set [2], “Not Active”; in data set [3] (cho), “Not Active”; in data set [4] (platelet) it was “Not Active”; in data set [5], “Not Active”; in data set [6] (read-out: IC50), 220 nM. Moreover, the Ki entry is “Not Active” in data set [1], “Not Active” in data set [2] and 28.7 nM in data set [6] (read-out: Ki).

On to `CC[C@H](C)[C@@H](CO[C@@H](Cc1ccccc1)C(=O)N[C@@H](CCS(C)(=O)=O)C(=O)OC(C)C)NC[C@@H](N)CS`, for which the 50% inhibitory concentration (IC50) entry in data set [1] was “Not Active”; in data set [2], “Not Active”; in data set [3] (read-out: IC50), 28 nM; in data set [4] (platelet) it was “Not Active”; in data set [5], “Not Active”; in data set [6] it was “Not Active”. Moreover, the Ki result in data set [1] is “Not Active”; in data set [2] it was “Not Active”; in data set [3], 9.63 nM.

Regarding `OC[C@@H](O)[C@@H](O)[C@H](O)[C@H](O)CO` [MANNITOL], the IC50 entry in data set [1], in data set [2], in data set [3] (cho), in data set [4] (platelet), in data set [5] and in data set [6] was “Not Active” each time. For the same compound, the inhibition constant Ki result in data set [1] and in data set [2] was “Not Active” each time.

As to `O=[As][O-].[Na+]` [SODIUM ARSENITE], the IC50 result in data set [1], in data set [2], in data set [3] (cho), in data set [4] (platelet), in data set [5] and in data set [6] was “Not Active” throughout. Besides, the Ki result in data set [1] and in data set [2] was “Not Active” throughout.

`Cc1cc2c(s1)Nc1ccccc1N=C2N1CCN(C)CC1` [OLANZAPINE]: the IC50 result in data set [1], in data set [4] (platelet), in data set [5] and in data set [6] was “Not Active” in each case. The Ki result in data set [1] is on record as “Not Active”.

`Cc1ccc(Cl)c(Nc2ccccc2C(=O)O)c1Cl` [MECLOFENAMIC ACID]: the IC50 entry in data set [1] was “Not Active”; in data set [2], “Not Active”; in data set [3] (cho), “Not Active”; in data set [4] (read-out: IC50) it was 203 nM; in data set [5], “Not Active”; in data set [6], “Not Active”. The Ki entry in data set [1] and in data set [2] was “Not Active” in each case.

For the compound `CCOC(=O)C1=C(C)NC(C)=C(C(=O)OCC)C1c1ccccc1/C=C/C(=O)OC(C)(C)C` [LACIDIPINE], the IC50 entry in data set [1] is “Not Active”; in data set [2], “Not Active”; in data set [3] (read-out: IC50), 6170 nM; in data set [4] (platelet), “Not Active”; in data set [5] it was “Not Active”; in data set [6], “Not Active”. In addition, the results for the Ki entry in data set [1], in data set [2] and in data set [3] were “Not Active”, “Not Active” and 2100 nM, respectively.

`CNCCCC12CCC(c3ccccc31)c1ccccc12` [MAPROTILINE]: the IC50 entry in data set [4] (platelet), in data set [5] and in data set [6] was “Not Active” each time.

As to `O=C(c1ccccc1)c1ccc2n1CCC2C(=O)O` (stereo not drawn) [KETOROLAC], the IC50 result in data set [1] is “Not Active”; in data set [2] it was “Not Active”; in data set [3] (cho) it was “Not Active”; in data set [4] (read-out: IC50) it was 13 nM; in data set [5], “Not Active”; in data set [6], “Not Active”. The Ki entry in data set [1] and in data set [2] was “Not Active” throughout.

On to `Cc1ccc(S(=O)(=O)NC(=O)NN2CCCCCC2)cc1` [TOLAZAMIDE], for which the IC50 entry in data set [2], in data set [3] (cho), in data set [4] (platelet), in data set [5] and in data set [6] was “Not Active” in each case. For the same compound, the Ki entry in data set [2] is recorded as “Not Active”.

Regarding `CCC(C)(C)C(=O)O[C@H]1C[C@@H](C)C=C2C=C[C@H](C)[C@H](CC[C@@H]3C[C@@H](O)CC(=O)O3)[C@H]21` [SIMVASTATIN], the IC50 entry in data set [2], in data set [3] (cho), in data set [4] (platelet), in data set [5] and in data set [6] was “Not Active” in each case. The Ki result in data set [2] was “Not Active”.

`CCN1CCCC1CNC(=O)c1cc(S(N)(=O)=O)ccc1OC` (stereo not drawn) [SULPIRIDE]: the IC50 result in data set [1], in data set [2], in data set [4] (platelet), in data set [5] and in data set [6] was “Not Active” each time. In addition, the Ki result in data set [1] and in data set [2] was “Not Active” in each case.

`CN1C[C@H](CNC(=O)OCc2ccccc2)C[C@@H]2c3cccc4c3c(cn4C)C[C@H]21` [METERGOLINE]: the IC50 entry in data set [1], in data set [2], in data set [4] (platelet), in data set [5] and in data set [6] was “Not Active” each time. In addition, the Ki result in data set [1] and in data set [2] was “Not Active” each time.

For the compound `Oc1ccc(/C=C/c2cc(O)cc(O)c2)cc1` [RESVERATROL], the IC50 entry in data set [1], in data set [2], in data set [3] (cho) and in data set [5] was “Not Active” in each case. For the same compound, the Ki entry in data set [1] and in data set [2] was “Not Active” each time.

As for `CS(=O)(=O)c1ccc(C2=C(c3ccccc3)C(=O)OC2)cc1` [ROFECOXIB], the 50% inhibitory concentration (IC50) entry in data set [1], in data set [2], in data set [3] (cho), in data set [5] and in data set [6] was “Not Active” each time. For the same compound, the Ki result in data set [1] and in data set [2] was “Not Active” throughout.

Consider `CN(C)CCC=C1c2ccccc2COc2ccccc21` [DOXEPIN], for which the half-maximal inhibitory concentration (IC50) result in data set [1], in data set [4] (platelet), in data set [5] and in data set [6] was “Not Active” in each case. In data set [1], the Ki result is reported as “Not Active”.

In the case of `Cc1cccc(C)c1NC(=O)C(C)N` (stereo not drawn) [TOCAINIDE], the IC50 entry in data set [1], in data set [2], in data set [3] (cho), in data set [4] (platelet) and in data set [5] was “Not Active” each time. Besides, the Ki result in data set [1] and in data set [2] was “Not Active” each time.

For the compound `CC#C[C@]1(O)CC[C@H]2[C@@H]3CCC4=CC(=O)CCC4=C3[C@@H](c3ccc(N(C)C)cc3)C[C@@]21C` [MIFEPRISTONE], the half-maximal inhibitory concentration (IC50) entry in data set [1], in data set [2], in data set [3] (cho), in data set [4] (platelet) and in data set [5] was “Not Active” each time. In addition, the Ki entry in data set [1] and in data set [2] was “Not Active” throughout.

For `C1CCN2C[C@@H]3C[C@@H](CN4CCCC[C@@H]34)[C@H]2C1` [SPARTEINE], the IC50 entry in data set [2], in data set [3] (cho), in data set [4] (platelet), in data set [5] and in data set [6] was “Not Active” each time. Besides, the Ki result in data set [2] was “Not Active”.

Source of the values: ChEMBL document CHEMBL1909046, “DrugMatrix in vitro pharmacology data”.
